This note sets out measurements from patent publication US20140073801A1, “PYRROLIDINE DERIVATIVES AS SELECTIVE GLYCOSIDASE INHIBITORS AND USES THEREOF” (Summit Corporation Plc, priority 2011, published 2014).

pIC50: −log10 of the molar value. Where only a bound is given, the exact number is not on record here.

As usually defined, the pIC50 is the IC50 on a negative log10 scale, so that one unit is a factor of ten. A low value points to a large IC50.

Common to all, as to format: biochemical
Assay [1] concerns the target T1, human β-hexosaminidase [human placenta] (HexA/B).
T1 construct: other: human β-hexosaminidase, human placenta; room temperature, thirty minutes
Kind of assay: Determination of IC50 values for inhibition of human β-hexosaminidase. The note with it: human β-hexosaminidase, human placenta; room temperature, thirty minutes. As to the method:
(§1) Inhibitors identified from the screen described in Example 1 were evaluated for IC50 against human β-hexosaminidase [human placenta, Sigma-Aldrich] using a range of inhibitor concentrations from 300 μM to 0.003 μM or 100 μM to 0.001 μM and the following reaction conditions:
(§2) Reactions were carried out at room temperature for thirty minutes and then quenched through the addition of 150 μl 0.5M Na2CO3. Fluorescence readings were taken at excitation wavelength 360 nm and emission wavelength 450 nm. IC50 values were calculated using XLFit 4. The selectivity ratio for inhibition of human O-GlcNAcase over human β-hexosaminidase is defined here as:
(§3) IC50(human β-hexosaminidase)/IC50(Human OGA)

Assay [2] concerns human β-hexosaminidase [human placenta] (HexA/B). The assay is described as above. The note with it: ratio. As to the method:
as §1, §2, §3

For a further assay, the target named is T2, human OGA (Homo sapiens, UniProt O60502).
T2 construct: made in house
T2 sequence (O60502 1-916): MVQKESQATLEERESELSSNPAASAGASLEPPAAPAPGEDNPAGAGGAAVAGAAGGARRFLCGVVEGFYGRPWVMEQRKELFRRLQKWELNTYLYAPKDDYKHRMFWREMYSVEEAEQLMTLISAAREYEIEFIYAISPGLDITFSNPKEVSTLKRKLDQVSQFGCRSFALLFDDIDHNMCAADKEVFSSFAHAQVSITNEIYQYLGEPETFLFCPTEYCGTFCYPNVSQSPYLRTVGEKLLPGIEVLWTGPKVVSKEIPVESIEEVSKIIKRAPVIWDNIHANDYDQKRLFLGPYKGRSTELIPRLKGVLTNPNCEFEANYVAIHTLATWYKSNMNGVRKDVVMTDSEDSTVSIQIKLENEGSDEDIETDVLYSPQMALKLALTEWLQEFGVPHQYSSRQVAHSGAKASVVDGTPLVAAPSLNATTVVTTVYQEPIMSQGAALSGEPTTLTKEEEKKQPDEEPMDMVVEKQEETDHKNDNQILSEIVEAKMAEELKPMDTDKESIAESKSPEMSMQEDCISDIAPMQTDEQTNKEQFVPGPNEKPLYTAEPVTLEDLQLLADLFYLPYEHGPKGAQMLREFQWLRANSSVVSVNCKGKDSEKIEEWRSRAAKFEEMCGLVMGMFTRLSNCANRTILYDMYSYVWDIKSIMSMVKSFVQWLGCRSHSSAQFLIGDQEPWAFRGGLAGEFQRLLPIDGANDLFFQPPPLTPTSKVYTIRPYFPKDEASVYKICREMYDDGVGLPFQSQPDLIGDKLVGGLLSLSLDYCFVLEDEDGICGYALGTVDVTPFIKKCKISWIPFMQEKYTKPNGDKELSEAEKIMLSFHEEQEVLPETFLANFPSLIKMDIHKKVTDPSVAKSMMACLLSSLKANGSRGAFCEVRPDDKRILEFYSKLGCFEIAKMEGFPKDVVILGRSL
Kind of assay: Determination of IC50 values for inhibition of human OGA. As to the method:
Inhibitors identified from the screen described in Example 1 were evaluated for IC50 using a procedure adapted from Biochem. J. 2009, 420, 221-227. IC50 determination was carried out using a range of inhibitor concentrations from 300 μM to 0.003 μM or 100 μM to 0.001 μM. IC50 values were calculated using XLFit 4.

Regarding `CCCNC(=O)C[C@H]1N[C@H](CO)[C@@H](O)[C@H]1O` [Compound A004, 2-((2R,3S,4R,5R)-3,4-dihydroxy-5-(hydroxymethyl)pyrrolidin-2-yl)-N-propylacetamide], the negative logarithm of the IC50 (pIC50) in assay [1] is under 3.52; on human OGA, 6.27. The “Selectivity: IC50(human β-hexosaminidase)/IC50(Human OGA)” value in assay [2] is reported as over 555.
For `CC(C)CNC(=O)C[C@@H]1[C@H](O)[C@H](O)[C@@H](CO)N1CCCc1ccccc1` [Compound A026, 2-((2R,3S,4R,5R)-3,4-dihydroxy-5-(hydroxymethyl)-1-(3-phenylpropyl)pyrrolidin-2-yl)-N-isobutylacetamide], in that order: under 3.52, 5.36 and over 68.34.
For `CNC(=O)C[C@@H]1[C@H](O)[C@H](O)[C@@H](CO)N1CCCCCCCCCO` [Compound A009, 2-((2R,3S,4R,5R)-3,4-dihydroxy-5-(hydroxymethyl)-1-(9-hydroxynonyl)pyrrolidin-2-yl)-N-methylacetamide], in that order: 3.71, 7.44 and 5472.
For `CCCCCCN1[C@@H](CO)[C@H](O)[C@H](O)[C@@H]1CC(=O)NC` [Compound A024, 2-((2S,3R,4S,5S)-1-hexyl-3,4-dihydroxy-5-(hydroxymethyl)pyrrolidin-2-yl)-N-methylacetamide], in that order: 4.36, 3.84 and 0.31.
As to `CNC(=O)C[C@H]1N[C@H](CO)[C@@H](O)[C@@H]1O` [Compound A044, 2-((2R,3R,4R,5R)-3,4-dihydroxy-5-(hydroxymethyl)pyrrolidin-2-yl)-N-methylacetamide], the pIC50 in assay [1] was 6.89; against human OGA, 7.55. Further, in assay [2], the “Selectivity: IC50(human β-hexosaminidase)/IC50(Human OGA)” value was found to be 4.66.
For `CCCCCCN1[C@H](CO)[C@@H](O)[C@H](O)[C@H]1CC(=O)NC` [Compound A046, 2-((2R,3R,4R,5R)-1-hexyl-3,4-dihydroxy-5-(hydroxymethyl)pyrrolidin-2-yl)-N-methylacetamide], in that order: 8.00, 7.63 and 0.42.
Regarding `CCCCCCN1[C@H](CO)[C@@H](O)[C@H](O)[C@@H]1CC(=O)NCC` [Compound A054, N-ethyl-2-((2S,3R,4R,5R)-1-hexyl-3,4-dihydroxy-5-(hydroxymethyl)pyrrolidin-2-yl)acetamide], the pIC50 in assay [1] is under 3.52; at human OGA, 5.16. In addition, the “Selectivity: IC50(human β-hexosaminidase)/IC50(Human OGA)” value in assay [2] is recorded as over 42.98.
For `CCCCCCN1[C@H](CNC(C)=O)[C@H](O)[C@H](O)[C@H]1CO` [Compound A035, N-(((2R,3S,4R,5R)-1-hexyl-3,4-dihydroxy-5-(hydroxymethyl)pyrrolidin-2-yl)methyl)acetamide], in that order: under 3.52, 5.41 and over 76.92.
For `CNC(=O)C[C@@H]1[C@H](O)[C@H](O)[C@@H](CO)N1CCCCc1ccccc1` [Compound A020, 2-((2R,3S,4R,5R)-3,4-dihydroxy-5-(hydroxymethyl)-1-(4-phenylbutyl)pyrrolidin-2-yl)-N-methylacetamide], in that order: under 3.52, 7.64 and over 13215.
For `CCCCCCN1[C@H](CC(=O)NC)[C@H](O)[C@H](O)[C@@H]1CO` [Compound A036, 2-((2R,3S,4R,5S)-1-hexyl-3,4-dihydroxy-5-(hydroxymethyl)pyrrolidin-2-yl)-N-methylacetamide], in that order: 4.14, 3.87 and 0.54.
Regarding `CCCCCCCCCN1[C@H](CC(=O)NC)[C@H](O)[C@H](O)[C@H]1CO` [Compound A011, 2-((2R,3S,4R,5R)-3,4-dihydroxy-5-(hydroxymethyl)-1-nonylpyrrolidin-2-yl)-N-methylacetamide], the results for the pIC50 (in assay [1]; against human OGA) were under 3.52 and 7.48, respectively. Further, the “Selectivity: IC50(human β-hexosaminidase)/IC50(Human OGA)” value in assay [2] was over 9174.
With `CNC(=O)C[C@@H]1N[C@H](CO)[C@@H](O)[C@@H]1O` [Compound A045, 2-((2S,3R,4R,5R)-3,4-dihydroxy-5-(hydroxymethyl)pyrrolidin-2-yl)-N-methylacetamide], the results for the pIC50 (in assay [1]; against human OGA) were 5.56 and 6.23, respectively. For the same compound, in assay [2], the “Selectivity: IC50(human β-hexosaminidase)/IC50(Human OGA)” value is given as 4.71.
For the compound `CNC(=O)C[C@@H]1[C@H](O)[C@H](O)[C@@H](CO)N1CCCNC(=O)OC(C)(C)C` [Compound A065, tert-butyl (3-((2R,3R,4S,5R)-3,4-dihydroxy-2-(hydroxymethyl)-5-(2-(methylamino)-2-oxoethyl)pyrrolidin-1-yl)propyl)carbamate], the pIC50 in assay [1] was 4.23; on human OGA it was 8.15. The “Selectivity: IC50(human β-hexosaminidase)/IC50(Human OGA)” value in assay [2] is listed as 8342.
On to `CCNC(=O)C[C@H]1N[C@H](CO)[C@@H](O)[C@H]1O` [Compound A006, 2-((2R,3S,4R,5R)-3,4-dihydroxy-5-(hydroxymethyl)pyrrolidin-2-yl)-N-ethylacetamide], for which the pIC50 in assay [1] is under 3.52; against human OGA, 5.90. In assay [2], the “Selectivity: IC50(human β-hexosaminidase)/IC50(Human OGA)” value is over 234.
Turning to `CCNC(=O)C[C@@H]1N[C@H](CO)[C@@H](O)[C@@H]1O` [Compound A051, 2-((2S,3R,4R,5R)-3,4-dihydroxy-5-(hydroxymethyl)pyrrolidin-2-yl)-N-ethylacetamide], the figures for the pIC50 (in assay [1]; against human OGA) were under 3.52 and 4.54, respectively. In assay [2], the “Selectivity: IC50(human β-hexosaminidase)/IC50(Human OGA)” value is over 10.43.
For `CNC(=O)C[C@@H]1[C@H](O)[C@H](O)[C@@H](CO)N1CCOc1ccccc1` [Compound A037, 2-((2R,3S,4R,5R)-3,4-dihydroxy-5-(hydroxymethyl)-1-(2-phenoxyethyl)pyrrolidin-2-yl)-N-methylacetamide], in that order: under 3.52, 6.64 and over 1315.
For `CC(=O)NC[C@H]1N[C@H](CO)[C@@H](O)[C@H]1O` [Compound A033, N-(((2R,3S,4R,5R)-3,4-dihydroxy-5-(hydroxymethyl)pyrrolidin-2-yl)methyl)acetamide], in that order: under 3.52, 5.77 and over 178.57.
For `CCCCCCN1[C@H](CC(=O)NCCO)[C@H](O)[C@H](O)[C@H]1CO` [Compound A028, 2-((2R,3S,4R,5R)-1-hexyl-3,4-dihydroxy-5-(hydroxymethyl)pyrrolidin-2-yl)-N-(2-hydroxyethyl)acetamide], in that order: at most 3.52, 3.67 and over 1.39.
Consider `CC(=O)NC[C@@H]1[C@H](O)[C@H](O)[C@@H](CO)N1CCCc1ccccc1` [Compound A038, N-(((2R,3S,4R,5R)-3,4-dihydroxy-5-(hydroxymethyl)-1-(3-phenylpropyl)pyrrolidin-2-yl)methyl)acetamide], for which the negative-log IC50 (pIC50) is under 3.52 in assay [1] and 5.89 at human OGA. Also, in assay [2], the “Selectivity: IC50(human β-hexosaminidase)/IC50(Human OGA)” value is reported as over 230.
